Molecular target: CalO2 (Micromonospora echinospora, UniProt Q8KND6)
Assay: CalO2 ligand binding by UV-vis difference spectra
Parameters: species or system M. echinospora

For `CC(=O)NCCSC(=O)c1c(C)cc(O)cc1O` [compound 11], which Kd is on record?
Its Kd is 170 ± 30 µM.

How did the Kd turn out when `CC(=O)NCCSC(=O)c1cccc(I)c1` [compound 13] was run?
Its Kd is 120 µM.

Which Kd does the source give for `CC(=O)NCCSC(=O)c1ccccc1O` [compound 14] here?
Its Kd is 405 ± 100 µM.

— publication PMC2742692 (Proteins, 2009)
